The source of these data is patent publication US7939270B2 (priority 2005, dated 2011).

The target of this test is WT αHL protein pore (Staphylococcus aureus, UniProt P09616). It is filed as binding. As to conditions: pH 7.

The structures appear in SMILES notation.

Sequence of WT αHL protein pore (P09616 27-319 limits assumed): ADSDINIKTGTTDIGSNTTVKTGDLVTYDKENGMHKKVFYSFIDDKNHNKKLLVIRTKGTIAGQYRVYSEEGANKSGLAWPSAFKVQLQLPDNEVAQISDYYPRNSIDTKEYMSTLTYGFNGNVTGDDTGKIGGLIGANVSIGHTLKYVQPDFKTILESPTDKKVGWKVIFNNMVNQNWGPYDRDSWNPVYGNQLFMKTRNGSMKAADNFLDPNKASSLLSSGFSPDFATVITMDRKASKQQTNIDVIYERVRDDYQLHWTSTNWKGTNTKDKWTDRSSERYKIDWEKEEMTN

`OC[C@H]1O[C@@H]2O[C@H]3[C@H](O)[C@@H](O)[C@@H](O[C@H]4[C@H](O)[C@@H](O)[C@@H](O[C@H]5[C@H](O)[C@@H](O)[C@@H](O[C@H]6[C@H](O)[C@@H](O)[C@@H](O[C@H]7[C@H](O)[C@@H](O)[C@@H](O[C@H]8[C@H](O)[C@@H](O)[C@@H](O[C@H]9[C@H](O)[C@@H](O)[C@@H](O[C@H]1[C@H](O)[C@H]2O)O[C@@H]9CO)O[C@@H]8CO)O[C@@H]7CO)O[C@@H]6CO)O[C@@H]5CO)O[C@@H]4CO)O[C@@H]3CO` [γ-cyclodextrin]: the “binding kinetics and current attenuation of γ-cyclodextrin binding, pore inserted by the present method compared with the conventional method” value is given as “the same”.
